Consider 5 compounds from ChEMBL document CHEMBL5113423, “Discovery and preclinical profile of sudapyridine (WX-081), a novel anti-tuberculosis agent” (Bioorg Med Chem Lett, 2022).

Values after ≈ are worked out from the molar mass of the structure shown.

This experiment deals with Mycobacterium tuberculosis. Description: Antimycobacterial activity against multidrug-resistant Mycobacterium tuberculosis assessed as mycobacterial growth inhibition. In kind it is functional.
As usually defined, the MIC50 is an inhibitory concentration at the 50% level, which refers to growth in some studies and to a panel of isolates in others. What is called MIC90 is the lowest concentration that inhibits either 90% of growth or 90% of the strains tested, depending on the study. Turning to `COc1nc(-c2ccc(Cl)cc2)ccc1[C@@H](c1ccccc1)[C@@](O)(CCN(C)C)c1cccc2ccccc12`, the MIC50 amounted to 0.111 µg/mL (≈ 0.207 µM) and the MIC90 worked out at 0.465 µg/mL (≈ 0.866 µM).
As for `COc1nc2ccc(Br)cc2cc1[C@@H](c1ccccc1)[C@@](O)(CCN(C)C)c1cccc2ccccc12` [BEDAQUILINE], the MIC50 turned out to be 0.032 µg/mL (≈ 0.0576 µM) and the MIC90 turned out to be 0.111 µg/mL (≈ 0.2 µM).
On the same counts, the results for `NNC(=O)c1ccncc1` [ISONIAZID] are 4.21 µg/mL (≈ 30.7 µM) and greater than 40 µg/mL.
On the same counts, the results for `NC[C@H]1O[C@H](O[C@H]2[C@H](O)[C@@H](O[C@H]3O[C@H](CO)[C@@H](O)[C@H](N)[C@H]3O)[C@H](N)C[C@@H]2N)[C@H](O)[C@@H](O)[C@@H]1O` [KANAMYCIN] are 1.24 µg/mL (≈ 2.55 µM) and greater than 40 µg/mL.
On the same counts, the results for `CO[C@H]1/C=C/O[C@@]2(C)Oc3c(C)c(O)c4c(O)c(c(/C=N/N5CCN(C)CC5)c(O)c4c3C2=O)NC(=O)/C(C)=C\C=C\[C@H](C)[C@H](O)[C@@H](C)[C@@H](O)[C@@H](C)[C@H](OC(C)=O)[C@@H]1C` [RIFAMPIN] are greater than 40 µg/mL and greater than 40 µg/mL.
